Data: patent US20250339409A1, “USES OF PAN BET INHIBITORS” (VYNE THERAPEUTICS INC., priority 2021, published 2025)
Read-outs that look alike come from different tables or passages of the source.

Experiments:
[1] = tested on: IL4, IL13, IL31, CCL17, CCL26, CCL2 gene expression in Th2 stimulated human skin; experiment: Th2 stimulated human skin explants, RT-qPCR of biomarkers; type: cell-based; conditions: for inhibition at 0.01 µM / inhibition at 0.04 µM / inhibition at 0.16 µM / inhibition at 0.63 µM / inhibition at 2.5 µM / inhibition at 10 µM: Homo sapiens; for inhibition at 2.5 µM: 2.50 μM
Excerpt: (§1) Human skin biopsy tissue was stimulated to induce a Th17 immuno-phenotype using a method derived from Feghali-Bostwick et al. Induction of a Th17 phenotype in human skin—a mimic of dermal inflammatory diseases, Methods and Protocols, 2, 45 (2019). The pharmacodynamic assay described therein involves a similar paradigm to elicit a Th2 response and is used to evaluate the therapeutic potential of the active compounds (e.g., BETi1; and
(§2) Freshly excised healthy human skin tissue from abdominoplasties is defatted, cleaned and sectioned into 7 mm biopsies. The biopsies are placed in Transwell® inserts with the epidermis apical and exposed to air and the dermis submerged in media in the basal chamber. The biopsies are pre-treated overnight at 37° C., 5% CO2 with different compounds and controls added to the media in the basal chamber.
(§3) The next day, contents of the basal chamber is replaced with fresh media containing the test compound (listed below) and a stimulation cocktail for either Th2 inflammation (proprietary of service provider cocktail) or Th17 inflammation (mix of antibodies against CD3, CD28, IL-4, IFNγ and recombinant IL-1β, IL-6, IL-21, TGF-β). The biopsies are incubated at 37° C., 5% CO2 for a further 24 hrs.
(§4) A list of all the treatments is provided below: • 1. Untreated control (for both stimulations) • 2. Th2 stimulated control • 3. Th17 stimulated control • 4. Th2+BETia at 0.01, 0.04, 0.16, 0.63, 2.50, and 10 μM • 5. Th2+BETi1 at 0.01, 0.04, 0.16, 0.63, 2.50, and 10 μM • 6. Th2+Ruxolitinib at 0.01, 0.04, 0.16, 0.63, 2.50, and 10 μM • 7. Th2+betamethasone valerate 210 μM (equivalent to 0.01%) • 8. Th17+BETia at 10 μM • 9. Th17+BETi1 at 10 μM • 10. Th17+Ruxolitinib at 10 μM • 11. Th17+betamethasone valerate 210 μM (equivalent to 0.01%)
(§5) After harvesting, the biopsies are cut in half, and one half is homogenized and used for RNA extraction by standard methods and inflammatory pathways is assessed by RT-qPCR. The ability of BETi1 or BETia to inhibit the activity of up to six biomarkers per stimulation is reported as percent activity calculated to stimulated control and fold change in gene expression calculated to untreated control with respect to Th2 (IL4, IL13, IL31, CCL17, CCL26, CCL2) and Th17 (CXCL10, IL17α, IL22, IL36γ, CCL20, SerpinB4). Statistical analysis is performed on data sets from all 3 donors combined and compares the percent inhibition of each biomarker by each treatment calculated to its respective vehicle.
(§6) qPCR values were calculated using the relative quantification approach outlined by Livak, et al (2001) (Section 9, Reference 2). The Ct values (threshold cycle) defined as the fractional cycle number at which the amount of amplified target reaches a fixed threshold, were normalised to the Ct value of an internal biomarker or ‘housekeeping gene’ (GAPDH). The higher limit of detection was set at a Ct value of 40, and any target having not reached Ct by 40 cycles was set to this value. The delta Ct values (dt(Ct)) refers to the Ct of the gene of interest minus the Ct of the internal biomarker. The ddt(Ct) is the dt(Ct) value of the gene minus the average dt(Ct) value of the untreated samples. The ddt(Ct) is converted to power by the equation; =power(2,dt(Ct)). Fold change was calculated as ratio of the power of the gene of interest divided by the average power of the untreated samples. This normalizes the untreated samplers to a value of 1. For the comparison of multiple skin donors, the stimulated samples were normalized to 100% maximum activity (such to normalize variability between different skin donors). Percent activity was calculated as the percent increase or decrease in stimulation compared to the stimulated samples set at 100% maximum activity. Percent change was calculated as: Inhibition=(100−(avg % activity/stimulated)*100). Statistical analysis was performed using One-way ANOVA with Dunnett's Multiple Comparisons (non parametric). […]

[2] = tested on: CXCL10, IL17α, IL22, IL36γ, CCL20, SerpinB4 gene expression in Th17 stimulated human skin; experiment: Th17 stimulated human skin explants, RT-qPCR of biomarkers; type: cell-based; conditions: calculated to Th17 stimulated control, three skin donors; for inhibition at 10 µM: Homo sapiens
Excerpt: as §1, §2, §3, §4, §5, §6

[3] = calculated to Th2 stimulated control, read-out: % Inhibition CCL17
[4] = calculated to Th2 stimulated control, read-out: % Inhibition CCL26
[5] = calculated to Th2 stimulated control, read-out: % Inhibition IL31
[6] = calculated to Th2 stimulated control, read-out: % inhibition CCL2
[7] = calculated to Th2 stimulated control, read-out: % inhibition IL4
[8] = calculated to Th2 stimulated control, read-out: % inhibition IL13
[9] = 210 μM, calculated to Th2 stimulated control

## N#CC[C@H](C1CCCC1)n1cc(-c2ncnc3[nH]ccc23)cn1 [Ruxolitinib, reference compound]
[1]; [3]
  inhibition at 0.01 µM: 23.2%
  inhibition at 0.04 µM: 47.7%
  inhibition at 0.63 µM: 34%
[1]; [4]
  inhibition at 0.01 µM: 14%
  inhibition at 0.04 µM: 35.3%
  inhibition at 0.63 µM: 88.3%
[1]; [5]
  inhibition at 0.01 µM: < 0%
  inhibition at 0.16 µM: 57.9%
  inhibition at 0.63 µM: 55.9%
  inhibition at 2.5 µM: < 0%
[1]; [6]
  inhibition at 0.01 µM: < 0%
  inhibition at 0.04 µM: < 0%
  inhibition at 0.16 µM: < 0%
  inhibition at 0.63 µM: < 0%
  inhibition at 2.5 µM: 33%
[1]; [7]
  inhibition at 0.01 µM: < 0%
  inhibition at 0.04 µM: 41.9%
  inhibition at 0.63 µM: 53.8%
  inhibition at 2.5 µM: 20.5%
[1]; [8]
  inhibition at 0.01 µM: 2.3%
  inhibition at 0.16 µM: 66.3%
  inhibition at 0.63 µM: 48.8%
  inhibition at 2.5 µM: 18.5%
[1]; 10 μM, calculated to Th2 stimulated control, read-out: % Inhibition CCL17
  inhibition at 10 µM: 89.9%
[1]; 10 μM, calculated to Th2 stimulated control, read-out: % Inhibition CCL26
  inhibition at 10 µM: 98.5%
[1]; 10 μM, calculated to Th2 stimulated control, read-out: % Inhibition IL31
  inhibition at 10 µM: 29.9%
[1]; 10 μM, calculated to Th2 stimulated control, read-out: % inhibition CCL2
  inhibition at 10 µM: ~57%
[1]; 10 μM, calculated to Th2 stimulated control, read-out: % inhibition IL4
  inhibition at 10 µM: 48.5%
[1]; 10 μM, calculated to Th2 stimulated control, read-out: % inhibition IL13
  inhibition at 10 µM: ~54%
[1]; Th2-mediated stimulation, 10 μM
  highest percent inhibition of CCL17 gene expression: ca. 90%
[2]; 10 μM, read-out: % inhibition CCL20
  inhibition at 10 µM: < 0%
[2]; 10 μM, read-out: % inhibition CXCL10
  inhibition at 10 µM: ~99%
[2]; 10 μM, read-out: % inhibition IL17α
  inhibition at 10 µM: 2.8%
[2]; 10 μM, read-out: % inhibition IL22
  inhibition at 10 µM: ~99%
[2]; 10 μM, read-out: % inhibition Serpinβ4
  inhibition at 10 µM: 92%

## CCCCC(=O)O[C@]1(C(=O)CO)[C@@H](C)C[C@H]2[C@@H]3CCC4=CC(=O)C=C[C@]4(C)[C@@]3(F)[C@@H](O)C[C@@]21C [Betamethasone, betamethasone valerate, reference compound]
[1]; 10 μM, calculated to Th2 stimulated control
  % Inhibition IL31: 87.4%
[1]; [9]
  % Inhibition CCL26: 64.4%
  % inhibition IL13: 97.8%
[2]; 10 μM
  % inhibition CCL20: N/I (N/I indicates no inhibition.)
[2]; 210 μM
  % inhibition IL17α: 73.1%
  % inhibition IL36γ: 77.7%
